{"source": "patent EP4635500A1", "about": "“THERAPEUTIC AGENT FOR BACTERIAL INFECTION” (Sumitomo Pharma Co., Ltd., priority 2022, dated 2024)", "key": {"[1]": {"system": "A. baumannii", "assay": "MIC, broth microdilution, CDC/FDA Antibiotic Resistance Isolate Bank (Example 7, Tables 9, 13, 14)", "type": "cell-based, Acinetobacter baumannii", "settings": "for MIC: read-out: MIC"}, "[2]": {"system": "P. aeruginosa", "assay": "MIC, broth microdilution, CDC/FDA Antibiotic Resistance Isolate Bank (Example 7, Tables 10, 15)", "type": "cell-based", "settings": "for MIC: Pseudomonas aeruginosa, read-out: MIC"}, "[3]": {"settings": "26 metallo-carbapenemase-producing P. aeruginosa strains, β-lactamase inhibitor µg/mL in parentheses"}, "[4]": {"settings": "96 strains of P. aeruginosa, β-lactamase inhibitor µg/mL in parentheses"}}, "note": "Where two headings read alike, the source gives them in different places."}
{"smiles": "CN(C)c1cc(NC(=O)CNC(C)(C)C)c(O)c2c1C[C@H]1C[C@H]3[C@H](N(C)C)C(O)=C(C(N)=O)C(=O)[C@@]3(O)C(O)=C1C2=O", "note": "[Tigecycline, tigecycline]", "values": [{"measurement": "MICrange", "setting": "[1]; 55 isolates of A. baumannii", "result": "0.25 to 2", "unit": "µg/mL"}, {"measurement": "MIC", "setting": "[1]; Acinetobacter baumannii, A. baumannii KUB No. 5567, AR Bank #70, OXA-58, OXA-100", "result": 0.25, "unit": "µg/mL"}, {"measurement": "MIC", "setting": "[1]; Acinetobacter baumannii, A. baumannii KUB No. 5575, AR Bank #78, OXA-71", "result": 2, "unit": "µg/mL"}, {"measurement": "MIC", "setting": "[1]; Acinetobacter baumannii, A. baumannii KUB No. 5580, AR Bank #83, OXA-23, OXA-69, NDM-1", "result": 0.5, "unit": "µg/mL"}, {"measurement": "MIC", "setting": "[1]; Acinetobacter baumannii, A. baumannii KUB No. 5585, AR Bank #88, OXA-64, NDM-1", "result": 0.25, "unit": "µg/mL"}, {"measurement": "MIC", "setting": "[1]; Acinetobacter baumannii, A. baumannii KUB No. 5598, AR Bank #101, OXA-24, OXA-65", "result": 1, "unit": "µg/mL"}, {"measurement": "MIC", "setting": "[1]; Acinetobacter baumannii, A. baumannii KUB No. 5599, AR Bank #102, OXA-66", "result": 1, "unit": "µg/mL"}, {"measurement": "MIC", "setting": "[1]; Acinetobacter baumannii, A. baumannii KUB No. 5706, AR Bank #273, OXA-23, OXA-66", "result": 0.5, "unit": "µg/mL"}, {"measurement": "MIC", "setting": "[1]; Acinetobacter baumannii, A. baumannii KUB No. 5707, AR Bank #274, OXA-66, OXA-72", "result": 1, "unit": "µg/mL"}, {"measurement": "MIC", "setting": "[1]; Acinetobacter baumannii, A. baumannii KUB No. 5708, AR Bank #275, OXA-23, OXA-66", "result": 0.5, "unit": "µg/mL"}, {"measurement": "MIC", "setting": "[1]; Acinetobacter baumannii, A. baumannii KUB No. 5709, AR Bank #276, no carbapenemase genes (-)", "result": 1, "unit": "µg/mL"}, {"measurement": "MIC", "setting": "[1]; Acinetobacter baumannii, A. baumannii KUB No. 5710, AR Bank #277, OXA-24, OXA-65", "result": 1, "unit": "µg/mL"}, {"measurement": "MIC", "setting": "[1]; Acinetobacter baumannii, A. baumannii KUB No. 5711, AR Bank #278, OXA-23, OXA-66", "result": 0.5, "unit": "µg/mL"}, {"measurement": "MIC", "setting": "[1]; Acinetobacter baumannii, A. baumannii KUB No. 5712, AR Bank #279, OXA-23, OXA-66", "result": 0.5, "unit": "µg/mL"}, {"measurement": "MIC", "setting": "[1]; Acinetobacter baumannii, A. baumannii KUB No. 5713, AR Bank #280, OXA-66", "result": 1, "unit": "µg/mL"}, {"measurement": "MIC", "setting": "[1]; Acinetobacter baumannii, A. baumannii KUB No. 5714, AR Bank #281, OXA-82", "result": 2, "unit": "µg/mL"}, {"measurement": "MIC", "setting": "[1]; Acinetobacter baumannii, A. baumannii KUB No. 5715, AR Bank #282, OXA-23, OXA-66", "result": 0.5, "unit": "µg/mL"}, {"measurement": "MIC", "setting": "[1]; Acinetobacter baumannii, A. baumannii KUB No. 5716, AR Bank #283, OXA-23, OXA-66", "result": 1, "unit": "µg/mL"}, {"measurement": "MIC", "setting": "[1]; Acinetobacter baumannii, A. baumannii KUB No. 5717, AR Bank #284, OXA-24, OXA-65", "result": 0.5, "unit": "µg/mL"}, {"measurement": "MIC", "setting": "[1]; Acinetobacter baumannii, A. baumannii KUB No. 5718, AR Bank #285, OXA-24, OXA-65", "result": 0.5, "unit": "µg/mL"}, {"measurement": "MIC", "setting": "[1]; Acinetobacter baumannii, KUB No. 5719, AR Bank #286", "result": 1, "unit": "µg/mL"}, {"measurement": "MIC", "setting": "[1]; Acinetobacter baumannii, KUB No. 5720, AR Bank #287", "result": 0.5, "unit": "µg/mL"}, {"measurement": "MIC", "setting": "[1]; Acinetobacter baumannii, KUB No. 5721, AR Bank #288", "result": 2, "unit": "µg/mL"}, {"measurement": "MIC", "setting": "[1]; Acinetobacter baumannii, KUB No. 5722, AR Bank #259", "result": 1, "unit": "µg/mL"}, {"measurement": "MIC", "setting": "[1]; Acinetobacter baumannii, KUB No. 5723, AR Bank #290", "result": 0.5, "unit": "µg/mL"}, {"measurement": "MIC", "setting": "[1]; Acinetobacter baumannii, KUB No. 5724, AR Bank #291", "result": 1, "unit": "µg/mL"}, {"measurement": "MIC", "setting": "[1]; Acinetobacter baumannii, KUB No. 5725, AR Bank #292", "result": 0.25, "unit": "µg/mL"}, {"measurement": "MIC", "setting": "[1]; Acinetobacter baumannii, KUB No. 5726, AR Bank #293", "result": 2, "unit": "µg/mL"}, {"measurement": "MIC", "setting": "[1]; Acinetobacter baumannii, KUB No. 5727, AR Bank #294", "result": 0.5, "unit": "µg/mL"}, {"measurement": "MIC", "setting": "[1]; Acinetobacter baumannii, KUB No. 5728, AR Bank #295", "result": 1, "unit": "µg/mL"}, {"measurement": "MIC", "setting": "[1]; Acinetobacter baumannii, KUB No. 5729, AR Bank #296", "result": 1, "unit": "µg/mL"}, {"measurement": "MIC", "setting": "[1]; Acinetobacter baumannii, KUB No. 5730, AR Bank #297", "result": 2, "unit": "µg/mL"}, {"measurement": "MIC", "setting": "[1]; Acinetobacter baumannii, KUB No. 5731, AR Bank #298", "result": 0.5, "unit": "µg/mL"}, {"measurement": "MIC", "setting": "[1]; Acinetobacter baumannii, KUB No. 5732, AR Bank #299", "result": 1, "unit": "µg/mL"}, {"measurement": "MIC", "setting": "[1]; Acinetobacter baumannii, KUB No. 5733, AR Bank #300", "result": 0.5, "unit": "µg/mL"}, {"measurement": "MIC", "setting": "[1]; Acinetobacter baumannii, KUB No. 5734, AR Bank #301", "result": 1, "unit": "µg/mL"}, {"measurement": "MIC", "setting": "[1]; Acinetobacter baumannii, KUB No. 5735, AR Bank #302", "result": 1, "unit": "µg/mL"}, {"measurement": "MIC", "setting": "[1]; Acinetobacter baumannii, KUB No. 5736, AR Bank #303", "result": 1, "unit": "µg/mL"}, {"measurement": "MIC", "setting": "[1]; Acinetobacter baumannii, KUB No. 5737, AR Bank #304", "result": 1, "unit": "µg/mL"}, {"measurement": "MIC", "setting": "[1]; Acinetobacter baumannii, KUB No. 5738, AR Bank #305", "result": 0.25, "unit": "µg/mL"}, {"measurement": "MIC", "setting": "[1]; Acinetobacter baumannii, KUB No. 5739, AR Bank #306", "result": 1, "unit": "µg/mL"}, {"measurement": "MIC", "setting": "[1]; Acinetobacter baumannii, KUB No. 5740, AR Bank #307", "result": 1, "unit": "µg/mL"}, {"measurement": "MIC", "setting": "[1]; Acinetobacter baumannii, KUB No. 5741, AR Bank #308", "result": 0.5, "unit": "µg/mL"}, {"measurement": "MIC", "setting": "[1]; Acinetobacter baumannii, KUB No. 5742, AR Bank #309", "result": 0.5, "unit": "µg/mL"}, {"measurement": "MIC", "setting": "[1]; Acinetobacter baumannii, KUB No. 5743, AR Bank #310", "result": 1, "unit": "µg/mL"}, {"measurement": "MIC", "setting": "[1]; Acinetobacter baumannii, KUB No. 5744, AR Bank #311", "result": 0.5, "unit": "µg/mL"}, {"measurement": "MIC", "setting": "[1]; Acinetobacter baumannii, KUB No. 5745, AR Bank #312", "result": 0.25, "unit": "µg/mL"}, {"measurement": "MIC", "setting": "[1]; Acinetobacter baumannii, KUB No. 5746, AR Bank #313", "result": 0.5, "unit": "µg/mL"}, {"measurement": "MIC50", "setting": "[1]; Acinetobacter baumannii, 55 isolates of A. baumannii, read-out: MIC50", "result": 1, "unit": "µg/mL"}, {"measurement": "MIC80", "setting": "[1]; Acinetobacter baumannii, 55 isolates of A. baumannii, read-out: MIC80", "result": 1, "unit": "µg/mL"}, {"measurement": "MIC90", "setting": "[1]; Acinetobacter baumannii, 55 isolates of A. baumannii, read-out: MIC90", "result": 1, "unit": "µg/mL"}, {"measurement": "Number of isolates at MIC ≤[…]", "setting": "[1]; MIC distribution, metallo-β-lactamase-producing A. baumannii, inhibitor µg/mL in parentheses", "result": 3}, {"measurement": "MIC against 26 metallo-carbapenemase-producing strains MIC50", "setting": "[2]; [3]", "result": "4 µg(mL)"}, {"measurement": "MIC against 26 metallo-carbapenemase-producing strains MIC90", "setting": "[2]; [3]", "result": "16 µg(mL)"}, {"measurement": "MIC against 26 metallo-carbapenemase-producing strains MICrange", "setting": "[2]; [3]", "result": "1 - 16 µg(mL)"}, {"measurement": "MIC against 96 strains of P. aeruginosa MIC50", "setting": "[2]; [4]", "result": "4 µg(mL)"}, {"measurement": "MIC against 96 strains of P. aeruginosa MIC90", "setting": "[2]; [4]", "result": "16 µg(mL)"}, {"measurement": "MIC against 96 strains of P. aeruginosa MICrange", "setting": "[2]; [4]", "result": "0.5 - 16 µg(mL)"}, {"measurement": "MIC", "setting": "[2]; P. aeruginosa KUB No. 579, AR Bank # 447", "result": 4, "unit": "µg/mL"}, {"measurement": "MIC", "setting": "[2]; P. aeruginosa KUB No. 5551, AR Bank # 54", "result": 16, "unit": "µg/mL"}, {"measurement": "MIC", "setting": "[2]; P. aeruginosa KUB No. 5561, AR Bank # 64", "result": 2, "unit": "µg/mL"}, {"measurement": "MIC", "setting": "[2]; P. aeruginosa KUB No. 5587, AR Bank # 90", "result": 2, "unit": "µg/mL"}, {"measurement": "MIC", "setting": "[2]; P. aeruginosa KUB No. 5589, AR Bank # 92", "result": 4, "unit": "µg/mL"}, {"measurement": "MIC", "setting": "[2]; P. aeruginosa KUB No. 5591, AR Bank # 94", "result": 8, "unit": "µg/mL"}, {"measurement": "MIC", "setting": "[2]; P. aeruginosa KUB No. 5592, AR Bank # 95", "result": 2, "unit": "µg/mL"}, {"measurement": "MIC", "setting": "[2]; P. aeruginosa KUB No. 5597, AR Bank # 100", "result": 16, "unit": "µg/mL"}, {"measurement": "MIC", "setting": "[2]; P. aeruginosa KUB No. 5600, AR Bank # 103", "result": 16, "unit": "µg/mL"}, {"measurement": "MIC", "setting": "[2]; P. aeruginosa KUB No. 5602, AR Bank # 105", "result": 8, "unit": "µg/mL"}, {"measurement": "MIC", "setting": "[2]; P. aeruginosa KUB No. 5605, AR Bank # 108", "result": 8, "unit": "µg/mL"}, {"measurement": "MIC", "setting": "[2]; P. aeruginosa KUB No. 5607, AR Bank # 110", "result": 8, "unit": "µg/mL"}, {"measurement": "MIC", "setting": "[2]; P. aeruginosa KUB No. 5608, AR Bank # 111", "result": 8, "unit": "µg/mL"}, {"measurement": "MIC", "setting": "[2]; P. aeruginosa KUB No. 5662, AR Bank # 229", "result": 16, "unit": "µg/mL"}, {"measurement": "MIC", "setting": "[2]; P. aeruginosa KUB No. 5663, AR Bank # 230", "result": 4, "unit": "µg/mL"}, {"measurement": "MIC", "setting": "[2]; P. aeruginosa KUB No. 5664, AR Bank # 231", "result": 16, "unit": "µg/mL"}, {"measurement": "MIC", "setting": "[2]; P. aeruginosa KUB No. 5665, AR Bank # 232", "result": 4, "unit": "µg/mL"}]}
